Assay results reported in ChEMBL document CHEMBL1201862, “PubChem BioAssay data set” (2004).
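Exposure lasted 48 hours, with cells grown in 96-well plates and compounds tested at five concentrations. GI50 is the concentration that inhibits growth by half.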 The source made the active and inactive calls. No stated cut-off is given here; in the data, active = GI50 up to about 1.1 µM and inactive = higher.

How the values were obtained:
Assay in all cases: inhibition of tumour cell growth, NCI panel, 48 h
[1] = tested on: 786-0
[2] = tested on: A549
[3] = tested on: DU-145
[4] = tested on: HCC 2998
[5] = tested on: HL-60
[6] = tested on: Malme-3M
[7] = tested on: NCI-H23
[8] = tested on: NCI/ADR-RES
[9] = tested on: OVCAR-3
[10] = tested on: OVCAR-8
[11] = tested on: SF-268
[12] = tested on: SF-295
[13] = tested on: SK-MEL-2
[14] = tested on: SR
[15] = tested on: UACC-257
[16] = tested on: UO-31
[17] = tested on: BT-549
[18] = tested on: CAKI-1
[19] = tested on: A498

Compound	GI50 [1]	GI50 [2]	GI50 [3]	GI50 [4]	GI50 [5]	GI50 [6]	GI50 [7]	GI50 [8]	GI50 [9]	GI50 [10]	GI50 [11]	GI50 [12]	GI50 [13]	GI50 [14]	GI50 [15]	GI50 [16]	GI50 [17]	GI50 [18]	GI50 [19]
CCO/C=C(\C(=O)OC)S(=O)(=O)c1ccc(C)cc1	> 100 µM (inactive)	> 100 µM (inactive)	> 100 µM (inactive)	> 100 µM (inactive)	0.0596 µM (active)	> 100 µM (inactive)	> 100 µM (inactive)	> 100 µM (inactive)	> 100 µM (inactive)	> 100 µM (inactive)	> 100 µM (inactive)	> 100 µM (inactive)	> 100 µM (inactive)	> 100 µM (inactive)	> 100 µM (inactive)	61.7 µM (inactive)	–	–	–
CCOc1cc(C=O)c2c(ccc3ccc(OC)c(OC)c32)c1OC	> 100 µM (inactive)	46.1 µM (inactive)	> 100 µM (inactive)	83.8 µM (inactive)	24.4 µM (inactive)	55.7 µM (inactive)	64 µM (inactive)	17.5 µM (inactive)	31.6 µM (inactive)	50 µM (inactive)	> 100 µM (inactive)	43.8 µM (inactive)	36.8 µM (inactive)	–	59.3 µM (inactive)	66.8 µM (inactive)	32.4 µM (inactive)	93.5 µM (inactive)	–
C=CC1(c2ccc(OC)cc2)OCCCO1	> 100 µM (inactive)	> 100 µM (inactive)	> 100 µM (inactive)	> 100 µM (inactive)	> 100 µM (inactive)	> 100 µM (inactive)	> 100 µM (inactive)	> 100 µM (inactive)	> 100 µM (inactive)	> 100 µM (inactive)	> 100 µM (inactive)	> 100 µM (inactive)	> 100 µM (inactive)	> 100 µM (inactive)	> 100 µM (inactive)	> 100 µM (inactive)	–	–	–
CC(=O)NC(C)c1ccc(/N=N/N2CCCC2)cc1 (stereo not drawn)	> 100 µM (inactive)	> 100 µM (inactive)	> 100 µM (inactive)	> 100 µM (inactive)	27.4 µM (inactive)	> 100 µM (inactive)	> 100 µM (inactive)	> 100 µM (inactive)	> 100 µM (inactive)	> 100 µM (inactive)	> 100 µM (inactive)	> 100 µM (inactive)	> 100 µM (inactive)	–	> 100 µM (inactive)	> 100 µM (inactive)	–	> 100 µM (inactive)	> 100 µM (inactive)
CCOC(=O)c1cnc2oc3ccc(O)cc3c2c1C	> 100 µM (inactive)	> 100 µM (inactive)	> 100 µM (inactive)	> 100 µM (inactive)	> 100 µM (inactive)	29.9 µM (inactive)	> 100 µM (inactive)	41.6 µM (inactive)	33.9 µM (inactive)	61.8 µM (inactive)	–	78.7 µM (inactive)	> 100 µM (inactive)	74 µM (inactive)	> 100 µM (inactive)	–	–	67 µM (inactive)	98.2 µM (inactive)
N#Cc1c(/C=C/c2ccccc2)c2c([nH]c1=S)CCCCC2	> 100 µM (inactive)	> 100 µM (inactive)	> 100 µM (inactive)	> 100 µM (inactive)	> 100 µM (inactive)	> 100 µM (inactive)	> 100 µM (inactive)	> 100 µM (inactive)	> 100 µM (inactive)	> 100 µM (inactive)	> 100 µM (inactive)	> 100 µM (inactive)	> 100 µM (inactive)	84.7 µM (inactive)	> 100 µM (inactive)	> 100 µM (inactive)	–	> 100 µM (inactive)	> 100 µM (inactive)
O=C(CSc1nc2ccc(I)cc2c(=O)n1Cc1ccccc1)N/N=C/c1ccccc1	11.8 µM (inactive)	25.2 µM (inactive)	39.3 µM (inactive)	67.1 µM (inactive)	> 100 µM (inactive)	–	17.5 µM (inactive)	23.8 µM (inactive)	11.6 µM (inactive)	17.9 µM (inactive)	10.6 µM (inactive)	11.4 µM (inactive)	12 µM (inactive)	13.5 µM (inactive)	26.3 µM (inactive)	–	–	4.01 µM (inactive)	15.2 µM (inactive)
N#CSCc1cccc(Nc2cc(=O)[nH]c(=O)[nH]2)c1	> 100 µM (inactive)	> 100 µM (inactive)	–	43.3 µM (inactive)	–	31.8 µM (inactive)	> 100 µM (inactive)	> 100 µM (inactive)	54.7 µM (inactive)	72.1 µM (inactive)	28.8 µM (inactive)	> 100 µM (inactive)	> 100 µM (inactive)	–	85.1 µM (inactive)	> 100 µM (inactive)	38 µM (inactive)	> 100 µM (inactive)	> 100 µM (inactive)
COc1cc(/C=C2\Sc3scc(-c4cccc([N+](=O)[O-])c4)[n+]3C2=O)cc(OC)c1OC	10.4 µM (inactive)	19.2 µM (inactive)	15.2 µM (inactive)	14.5 µM (inactive)	36.7 µM (inactive)	13.8 µM (inactive)	15.1 µM (inactive)	17.4 µM (inactive)	15.8 µM (inactive)	15.5 µM (inactive)	11.8 µM (inactive)	16.3 µM (inactive)	17 µM (inactive)	2.05 µM (inactive)	12.5 µM (inactive)	6.37 µM (inactive)	–	5.98 µM (inactive)	47 µM (inactive)
NC(=O)OCc1c(-c2ccccc2)nn(-c2ccccc2)c1COC(N)=O	> 100 µM (inactive)	> 100 µM (inactive)	> 100 µM (inactive)	> 100 µM (inactive)	–	> 100 µM (inactive)	> 100 µM (inactive)	> 100 µM (inactive)	> 100 µM (inactive)	> 100 µM (inactive)	> 100 µM (inactive)	> 100 µM (inactive)	> 100 µM (inactive)	–	> 100 µM (inactive)	> 100 µM (inactive)	> 100 µM (inactive)	> 100 µM (inactive)	–
CCC(=O)/C(=C\I)c1ccccc1	1.78 µM (inactive)	20.9 µM (inactive)	7.19 µM (inactive)	–	0.995 µM (active)	1.67 µM (inactive)	3.71 µM (inactive)	12.4 µM (inactive)	1.67 µM (inactive)	2 µM (inactive)	16.7 µM (inactive)	18.5 µM (inactive)	2.1 µM (inactive)	–	3.55 µM (inactive)	2.05 µM (inactive)	1.79 µM (inactive)	–	18.1 µM (inactive)
C=C[C@@H](OCOCC[Si](C)(C)C)[C@@H](CC)OC(CCCOC(=O)C(C)(C)C)OC (stereo partly drawn)	25 µM (inactive)	31.5 µM (inactive)	43.7 µM (inactive)	–	18.4 µM (inactive)	–	28.3 µM (inactive)	30.1 µM (inactive)	40.9 µM (inactive)	38.5 µM (inactive)	33.3 µM (inactive)	22 µM (inactive)	21.4 µM (inactive)	41.6 µM (inactive)	34.6 µM (inactive)	40 µM (inactive)	–	53.7 µM (inactive)	43.8 µM (inactive)
